Experimental data reported in paper PMC8152814, “The modulatory role of sulfated and non-sulfated small molecule heparan sulfate-glycomimetics in endothelial dysfunction: absolute structural clarification, molecular docking and simulated dynamics, SAR analyses and ADMET studies” (RSC Medicinal Chemistry, 2021).
Where two headings read alike, the source gives them in different places.

How the values were obtained:
Chemical stability = format: physicochemical
Text: | column: α-4; β-5; R-10; S-10

nitric oxide (NO) = assay: NO release assay (DAF-2) in FFA-stressed cells; format: cell-based, human; details: averaged % of increase (+) or decrease (−) compared to control (FFA induced oxidatively stressed endothelial cells), n = 3
Text: The assays focused on the production of nitric oxide (NO) and the upregulation of nitric oxide synthase (eNOS), the production of reactive oxygen species (ROS) and the activity of nicotinamide adenine dinucleotide phosphate (NADPH) oxidase (Table 2). From the hypothesised model of heparan sulfate-glycomimetic activity,[17] the glycomimetics are proposed to attenuate the binding of HGF to the cMET receptor. This disruption to MET-receptor activation is proposed to modulate intracellular phosphorylation leading to an upregulation of eNOS and increased output of extracellular NO. […] Overall, the cross examination of NO output and reduction of ROS was used to determine the therapeutic action of the triaged glycomimetics α-4, R-10, S-10 and β-5, as well as 3 non-sulfated intermediates α-2, α-3 and β-3, on free fatty acid (FFA) induced, oxidatively stressed endothelial cell cultures (Table 2).
Biological assay and AMDET experimental details […]
Preparation of FFA-albumin complexes and cell treatments
To generate the in vitro model of oxidative stress, sodium palmitate was bound to bovine serum albumin (BSA) as outlined by Chavez and Summers,S2 with modifications. Sodium palmitate (FFA) was dissolved in EtOH at 60 °C and diluted 1:100 in M199 media supplemented with 2% fatty acid-free bovine serum albumin (BSA) and incubated for 1 h at 37 °C. HepG2 cells were treated with 1 μmol/L of the synthesized HS-glycomimetics in the presence of palmitate (100 μmol/L) for 3 h or pre-treated with glycomimetics for 12 h followed by 3 h palmitate (100 μmol/L). Control cells were incubated in serum free M199 containing 2% (wt/vol) fatty acid-free BSA.
NO release assay and Quantification of ROS production
NO release was determined using diaminofluorescein-2 (DAF-2).S3 The cells were washed with PBS and incubated with L-arginine (100 μmol/L in PBS) for 5 min at 37 °C before incubation with DAF-2 (0.1 μmol/L) for 2 min, followed by the calcium ionophore calimycin (A23187, 1 μmol L) for 30 min. L-NAME (100 μmol/L), a nitric oxide inhibitor (NOS), was also added 20 min before the addition of L-arginine in some experiments to determine the involvement of NOS. DAF-2 fluorescence (arbitrary units, AU) was quantified using a microplate reader (BioTek) with excitation and emission wavelengths of 485 nm and 540 nm, respectively. The auto-fluorescence was subtracted from each value. […]
H2DCFDA, Sigma) for 30 min at 37 °C, and the level of fluorescence was determined (excitation 490 nm; emission 540 nm) using a microplate reader (BioTek).
The level of NADPH-enhanced superoxide anions (O2•−) in HepG2 homogenates was determined by lucigenin-enhanced chemiluminescence.S4 Following the various treatment conditions, cells were homogenized in a buffer (20 mmol/L H2KPO4 and 1 mmol/L EDTA supplemented with aprotinin, leuprotinin, pepstatin and PMSF). The total protein quantified using the Bicinchoninic acid (BCA) assay (Pierce Biotechnology). To 50 μg of total protein, NADPH (100 μmol/L) was added in a total volume of 500 μL, with lucigenin (5 μmol/L) and was injected automatically. Activity was determined by measuring luminescence over 200 s in a scintillation counter (Lumat LB 9507, Berthold, Germany). Basal values of NADPH oxidase activity were subtracted from the experimental values and expressed as RLU/min/μg protein […]
In situ quantification of ROS species
Superoxide dismutase (SOD) and catalase (CAT) activity assays, and in situ detection of vascular ROS content. The activity of the enzymes, SOD and CAT, was determined in cell homogenates using assay kits according to the manufacturer's instructions (Cayman; Cat No 706002 and 707002 respectively). A unit of SOD was defined as the amount of enzyme […]
Similarly, a unit of CAT was […]
defined as the amount required to form 1.0 nmol of formaldehyde per min at 25 °C.S5

[1] = Microsomal metabolic stability, mouse liver microsomes; details: liver microsomes (pooled), pH 7.4
[2] = Turbidimetric kinetic aqueous solubility; format: physicochemical
Experimental: Physicochemical and ADMET properties of representative glycomimetics. […] The cells were incubated for 30 min in Hepes-buffered solution containing 10 μmol/L dihydroethidium (DHE), which intercalates with DNA in the presence of ROS and is detectable by fluorescence. Cells were counterstained with the nuclear stain DAPI at 0.3 μmol/L. In the following 24 h, the cell cultures were examined using a fluorescence microscope (Leica DMIRB). Sections were photographed and fluorescence was quantified using ImageJ. All parameters (pinhole, contrast, gain and offset) were held constant for all sections from the same experiment. ROS production was estimated from the ratio of ethidium/DAPI fluorescence.S6 Western blot analysis HepG2 wells were lysed in RIPA buffer containing proteinase inhibitors and the total protein was quantified using BCA protein assay kit (Pierce Biotechnology). Proteins (30 μg/well) were denatured and separated by sodium dodecyl sulfate (SDS)-polyacrylamide gel electrophoresis and transferred to polyvinylidene difluoride (PVDF) membranes. Blots were blocked for 1 h in 5% semi-skimmed milk/Tris-Buffered Saline Tween-20 (TBS-T), probed with primary rabbit anti-phospho-protein kinase B (Akt), rabbit anti-Akt (Santa Cruz Biotechnology), rabbit polyclonal anti-phospho-eNOS (Cell Signaling) overnight at 4 °C followed by washing and incubation with the corresponding horse radish peroxidase-labelled secondary antibody for 1 h at room temperature. After washing with TBS-T, membranes were incubated with ECL reagent and visualized (Amersham Pharmacia Biotech). Densitometry analysis using ImageJ© (version 1.32j, NIH) was used to quantify the protein signal.S7 Turbidimetric Aqueous Solubility Test compound (10 mM in DMSO) was serially diluted to give solutions of 0.1, 0.3, 1 and 3 mM in DMSO. Each test compound concentration was then further diluted 1 in 100 in buffer (typically 0.01 M phosphate buffered saline pH 7.4) so that the final DMSO concentration is 1 % and the final test compound concentrations are 1, 3, 10, 30 and 100 µM. The experiment is performed at 37 °C and each concentration is incubated in 7 replicate wells. The plates are incubated for 2 h at 37 °C before the absorbance is measured at 620nm. Nicardipine (pH dependent) and pyrene (pH independent) are included as control compounds. The solubility is estimated from the concentration of test compound that produces an increase in absorbance above vehicle control (1% DMSO in buffer). S11

[3] = phosphate buffered saline, turbidimetric assay, PBS pH 7.4, 37 °C, 2 h, read-out: Kinetic solubility

Row | half-life at 3 µM [1] [h] | microsomal CLint at 3 µM [1] [µL/min/mg] | solubility kinetic at 2 h [2, 3] [µM] | SMILES | Chemical stability (Chemical stability) | NO production (nitric oxide (NO)) | microsomal CLint at 0.75 h, 3 µM [1] [µL/min/mg] | solubility kinetic at 2 h ([2]; pH 7.4) [µM] | half-life at 0.75 h, 3 µM [1] [h]
1 | 8.03 | 2.88 | > 100 | O=C([O-])c1cc(OC[C@H](COS(=O)(=O)[O-])OS(=O)(=O)[O-])ccc1OCC(COS(=O)(=O)[O-])OS(=O)(=O)[O-].[Na+].[Na+].[Na+].[Na+].[Na+] (mixture of isomers) [β-5, sodium 5-((R)-2,3-bis(sulfonatooxy)propoxy)-2-(2,3-bis(sulfonatooxy)propoxy)benzoate] | Yes | +62% | – | – | –
2 | 30.7 | 0.755 | > 100 | COC(=O)c1cc(OC[C@@H](COS(=O)(=O)[O-])OS(=O)(=O)[O-])ccc1OCC(COS(=O)(=O)[O-])OS(=O)(=O)[O-].[Na+].[Na+].[Na+].[Na+] (mixture of isomers) [α-4, sodium 3-(4-((S)-2,3-bis(sulfonatooxy)propoxy)-2-(methoxycarbonyl)phenoxy)propane-1,2-diyl bis(sulfate)] | Yes | +110% | – | – | –
3 | – | – | – | COC(=O)c1cc(OC[C@@H](COS(=O)(=O)[O-])OS(=O)(=O)[O-])ccc1OCCCCOS(=O)(=O)[O-].[Na+].[Na+].[Na+] [Compound S-10, sodium (S)-3-(3-(methoxycarbonyl)-4-(4-(sulfonatooxy)butoxy)phenoxy)propane-1,2-diyl bis(sulfate)] | Yes | +63% | 0.333 | > 100 | –

Row | SMILES | half-life at 3 µM [1] [h] | microsomal CLint at 3 µM [1] [µL/min/mg] | solubility kinetic at 2 h [2, 3] [µM] | Chemical stability (Chemical stability) | NO production (nitric oxide (NO)) | microsomal CLint at 0.75 h, 3 µM [1] [µL/min/mg] | solubility kinetic at 2 h ([2]; pH 7.4) [µM] | half-life at 0.75 h, 3 µM [1] [h]
4 | COC(=O)c1cc(OC[C@H](COS(=O)(=O)[O-])OS(=O)(=O)[O-])ccc1OCCCCOS(=O)(=O)[O-].[Na+].[Na+].[Na+] [Compound R-10, sodium (R)-3-(3-(methoxycarbonyl)-4-(4-(sulfonatooxy)butoxy)phenoxy)propane-1,2-diyl bis(sulfate)] | – | – | > 100 | Yes | +52% | 0.402 | – | 57.5
